Here are results for eleven compounds from patent US12187723B2 (BRISTOL-MYERS SQUIBB COMPANY, priority 2019, dated 2025).

What is called IC50 is the midpoint of a concentration-inhibition curve.

Structures are written as SMILES.

The target of this experiment is T1, human TLR8 (Homo sapiens, UniProt Q9NR97).
T1 construct: host or cells: HEK-Blue cells
T1 sequence (Q9NR97 27-1041): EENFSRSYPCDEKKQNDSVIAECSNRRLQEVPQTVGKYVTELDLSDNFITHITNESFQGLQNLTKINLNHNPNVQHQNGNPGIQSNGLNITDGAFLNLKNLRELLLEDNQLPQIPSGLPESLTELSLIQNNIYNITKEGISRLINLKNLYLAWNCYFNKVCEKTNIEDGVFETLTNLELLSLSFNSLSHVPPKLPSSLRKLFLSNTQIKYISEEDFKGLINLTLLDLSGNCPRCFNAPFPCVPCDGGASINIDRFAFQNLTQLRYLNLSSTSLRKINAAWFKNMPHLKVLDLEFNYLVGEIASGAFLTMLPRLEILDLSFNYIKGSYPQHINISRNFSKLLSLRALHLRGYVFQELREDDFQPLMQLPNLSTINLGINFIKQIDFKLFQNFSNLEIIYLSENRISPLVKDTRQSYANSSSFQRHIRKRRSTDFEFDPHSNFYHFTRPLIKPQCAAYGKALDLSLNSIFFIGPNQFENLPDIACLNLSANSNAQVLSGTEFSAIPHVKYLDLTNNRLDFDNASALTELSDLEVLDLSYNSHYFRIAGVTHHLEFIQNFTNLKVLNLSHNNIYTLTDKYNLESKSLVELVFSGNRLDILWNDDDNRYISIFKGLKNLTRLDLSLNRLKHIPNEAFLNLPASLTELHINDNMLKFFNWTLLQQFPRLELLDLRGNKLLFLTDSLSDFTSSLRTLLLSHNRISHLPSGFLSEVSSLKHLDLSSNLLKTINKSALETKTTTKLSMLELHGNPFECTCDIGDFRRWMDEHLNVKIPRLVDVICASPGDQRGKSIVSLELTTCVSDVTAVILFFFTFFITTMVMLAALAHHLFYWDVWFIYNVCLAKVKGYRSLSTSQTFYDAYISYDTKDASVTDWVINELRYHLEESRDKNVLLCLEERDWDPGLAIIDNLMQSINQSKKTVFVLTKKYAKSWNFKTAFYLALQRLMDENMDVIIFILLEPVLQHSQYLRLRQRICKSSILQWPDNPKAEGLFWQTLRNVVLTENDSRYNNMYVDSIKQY
In words: TLR8 inhibition reporter assay (HEK-Blue SEAP). The note with it: HEK-Blue cells overexpressing human TLR8, R848 15.9 μM, 22 hour incubation. It is filed as cell-based. The method in brief:
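Human TLR7/8/9 HEK-Blue reporter lines; dose range 0.05 nM–50 μM; 30 min RT preincubation; stimulus gardiquimod 7.5 μM / R848 15.9 μM / ODN2006 5 nM respectively; 22 h, 37 °C; SEAP detected colorimetrically.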
For orientation: In a reporter assay the amount or activity of a reporter protein is the signal.
On to `COc1cc(-c2cc3[nH]c(=O)n(C4CCC(N5CC(OC)C5)CC4)c3cc2C(C)C)cn2ncnc12` (centres unmarked) [Example 237, 6-isopropyl-5-(8-methoxy-[1,2,4]triazolo[1,5-a]pyridin-6-yl)-1-(4-(3-methoxyazetidin-1-yl)cyclohexyl)-1,3-dihydro-2H-benzo[d]imidazol-2-one], for which the half-inhibitory concentration (IC50) amounted to 0.33 nM.
The result for `CCc1cc2c(cc1-c1cc(OC)c3ncnn3c1)[nH]c(=O)n2[C@@H]1CCCN(CCOC)C1` [Example 227, (R)-6-ethyl-5-(8-methoxy-[1,2,4]triazolo[1,5-a]pyridin-6-yl)-1-(1-(2-methoxyethyl)piperidin-3-yl)-1,3-dihydro-2H-benzo[d]imidazol-2-one] reads 4.42 nM; that for `COc1cc(-c2cc3[nH]c(=O)n([C@H]4CC[C@H](NCC(C)C)CC4)c3cc2C(C)C)cn2ncnc12` [Example 204, 1-((1r,4s)-4-(isobutylamino)cyclohexyl)-6-isopropyl-5-(8-methoxy-[1,2,4]triazolo[1,5-a]pyridin-6-yl)-1,3-dihydro-2H-benzo[d]imidazol-2-one], 1.23 nM.
With `COc1cc(-c2cc3[nH]c(=O)n([C@H]4CC[C@H](NC(C)C)CC4)c3cc2C(C)C)cn2ncnc12` [Example 203, 6-isopropyl-1-((1r,4s)-4-(isopropylamino)cyclohexyl)-5-(8-methoxy-[1,2,4]triazolo[1,5-a]pyridin-6-yl)-1,3-dihydro-2H-benzo[d]imidazol-2-one] the figure was 1.34 nM; with `COc1cc(-c2cc3[nH]c(=O)n([C@H]4CC[C@@H](NCC(C)(C)C)CC4)c3cc2C(C)C)cn2ncnc12` [Example 197, 6-isopropyl-5-(8-methoxy-[1,2,4]triazolo[1,5-a]pyridin-6-yl)-1-((1s,4s)-4-(neopentylamino)cyclohexyl)-1,3-dihydro-2H-benzo[d]imidazol-2-one], 0.04 nM.
With `COCCN1CCC[C@@H](n2c(=O)[nH]c3cc(-c4cc(OC)c5ncnn5c4)c(C(C)C)cc32)C1` (single isomer, unassigned) [Example 225] the figure was 3.37 nM.
`COc1cc(-c2cc3[nH]c(=O)n(C4CCC(N5CC6(CCOCC6)C5)CC4)c3cc2C(C)C)cn2ncnc12` (single isomer, unassigned) [Example 236, 1-(4-(7-oxa-2-azaspiro[3.5]nonan-2-yl)cyclohexyl)-6-isopropyl-5-(8-methoxy-[1,2,4]triazolo[1,5-a]pyridin-6-yl)-1,3-dihydro-2H-benzo[d]imidazol-2-one] had an IC50 of 0.35 nM.
In turn, `CCCN(CCC)[C@H]1CC[C@@H](n2c(=O)[nH]c3cc(-c4cn5ncnc5c(C)c4C)c(C(C)C)cc32)CC1` [Example 199, 5-(7,8-dimethyl-[1,2,4]triazolo[1,5-a]pyridin-6-yl)-1-((1s,4s)-4-(dipropylamino)cyclohexyl)-6-isopropyl-1,3-dihydro-2H-benzo[d]imidazol-2-one] gave a 50% inhibitory concentration (IC50) of 0.53 nM.
With `Cc1c(-c2cc3[nH]c(=O)n([C@H]4CC[C@@H](NC(C)C)CC4)c3cc2C(C)C)cn2ncnc2c1C` [Example 186, 5-(7,8-dimethyl-[1,2,4]triazolo[1,5-a]pyridin-6-yl)-6-isopropyl-1-((1s,4s)-4-(isopropylamino)cyclohexyl)-1,3-dihydro-2H-benzo[d]imidazol-2-one] the figure was 0.13 nM.
In turn, `CCc1cc2c(cc1-c1cc(OC)c3ncnn3c1)[nH]c(=O)n2[C@@H]1CCCN(CC2CCC2)C1` [Example 181, (R)-1-(1-(cyclobutylmethyl)piperidin-3-yl)-6-ethyl-5-(8-methoxy-[1,2,4]triazolo[1,5-a]pyridin-6-yl)-1,3-dihydro-2H-benzo[d]imidazol-2-one] showed an IC50 of 1.68 nM. Compared with the last compound, the IC50 is about 13-fold higher.
The compound `Cc1cc2c(cc1-c1cc(C)c3ncnn3c1)[nH]c(=O)n2[C@@H]1CCCN(C(C)C)C1` [Example 17, (R)-1-(1-isopropylpiperidin-3-yl)-6-methyl-5-(8-methyl-[1,2,4]triazolo[1,5-a]pyridin-6-yl)-1,3-dihydro-2H-benzo[d]imidazol-2-one] came in with an IC50 of 14.5 nM. Compared with the last compound, the IC50 is about 8.6-fold higher.
